Measured values as given in US20230119141A1, “USES OF TAXIFOLIN FOR R[…]” (PHYTO TECH CORP., priority 2021, published 2023).

Test system: SARS-CoV-2
Assay: SARS-CoV-2 infection in Golden Syrian hamsters, viral loads in swabs and organs
Format: in vivo
Procedure: The therapeutic efficacy of taxifolin against SARS-CoV-2 infection was examined in Golden Syrian hamsters, a small animal model that most closely recapitulates clinical and pathological features of COVID-19 in humans. See, e.g., Imai, M, et al., Proc. Nat. Acad. Sci. 117(28):16587-16595 (2020); Reagan-Shaw, S., et al., FASEB J. 22:659-661 (2007). […] Animals in the taxifolin group (n=15) received prophylactic treatment of taxifolin (66.7 mg/kg) through oral gavage (OG) before the viral infection.
After SARS-CoV-2 inoculation, animals in the taxifolin group were orally given taxifolin (66.7 mg/kg) at days 1, 3, and 5. Animals in the control group (n=10) received an equal amount of PBS through oral gavage. At day 7, certain animals in the taxifolin (n=6) group and control group (n=5) were sacrificed, and the viral loads in major organs were tested.

**Q.** With `O=C1c2c(O)cc(O)cc2OC(c2ccc(O)c(O)c2)C1O` (stereo not shown) [taxifolin, 2-(3,4-dihydroxyphenyl)-3,5,7-trihydroxychroman-4-one] as the compound, how does the “viral load in nasal swabs” value (day 5 after infection, taxifolin 66.7 mg/kg oral gavage prophylactic and at days 1, 3, 5, n=8, control ~3×10^6) read?
**A.** Its value is ~7×10^4 RNA copies/100 μL.

**Q.** What about the “viral loads in oral swabs vs control” value (day 7, taxifolin 66.7 mg/kg oral gavage) of the same compound?
**A.** The value was “decreased the viral loads in oral swabs”.

**Q.** And the “viral loads in the trachea vs control” value (day 7, taxifolin 66.7 mg/kg oral gavage, n=4 per group)?
**A.** Its value is “clearly reduced the viral loads in the trachea”.

**Q.** What about the “viral loads in nasal swabs vs control” value (days 3 and 5 after viral infection, taxifolin 66.7 mg/kg oral gavage) of the same compound?
**A.** The value was “significantly lowered the viral loads in nasal swabs”.
